Holding throughout (assay type): in vivo
One series has as its system Stellaria media. The series can be described thus: Test Example 5: herbicidal effect by foliage application, plastic box (symbol P). As to conditions: 320 g/ha, 3 weeks after application. An outline of the steps: (§1)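 Herbicide, formulated as an emulsion and diluted in water, is sprayed onto the aerial parts of 14-day seedlings. These were grown at 25° C. to 30° C. in sterilized diluvial soil; effects are graded after 3 weeks.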

Series [1] concerns Echinochloa oryzacola Vasing. The series can be described thus: Test Example 1: herbicidal activity, application before weed generation in submerged conditions (symbol A). Particulars: application herbicide amount 320 g/ha. An outline of the steps:
(§2)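 In a flooded pot test with alluvial soil, the emulsion-formulated compound was diluted with water to a predetermined amount and applied to the floodwater immediately on the sowing day. Pots were held in a greenhouse at 25–30 °C for 3 weeks before each weed was rated.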

The subject of another series is beet. The series can be described thus: Test Example 5: effect on crop by foliage application, plastic box (symbol f). As to conditions: 320 g/ha, 3 weeks after application. The essentials:
(§3)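 Diluvial soil, sterilized and boxed (21 × 13 × 7 cm), received spot-sown seed covered by about 1.5 cm soil; plants were then greenhouse-grown at 25–30° C.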

In series [2] the test system is Echinochloa crus-galli var. crus-galli. The series can be described thus: Test Example 3: herbicidal effect by foliage application, Wagner pot (symbol H). As to conditions: application herbicide amount 320 g/ha. The essentials:
(§4)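 Rating at 3 weeks post-spray, by defined criteria. Treatment: emulsion diluted with water to a predetermined amount, applied evenly to foliage of 14-day-old plants raised in alluvial soil flooded 0.1–0.5 cm deep at 25–30 °C, rice co-sown.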

The subject of the next series is Setaria viridis. The series can be described thus: Test Example 4: herbicidal effect by soil treatment (symbol G). Particulars: application herbicide amount 320 g/ha. An outline of the steps:
(§5)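 Seeds were sown in sterilized diluvial soil, covered with about 1.5 cm of soil, and the soil surface was sprayed with a water-diluted emulsion of the compound at a predetermined rate. Plants grew in a greenhouse at 25° C. to 30° C.; effects were scored visually 3 weeks after application.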

A further series concerns Galium spurium. The series can be described thus: Test Example 5: herbicidal effect by foliage application, plastic box (symbol Q). Particulars: 320 g/ha, 3 weeks after application. The essentials: as §1
The subject of series [3] is Alopecurus myosuroides. The series can be described thus: Test Example 5: herbicidal effect by foliage application, plastic box (symbol J). As to conditions: 320 g/ha, 3 weeks after application. An outline of the steps:
as §1

The next series concerns Cyperus difformis. The series can be described thus: Test Example 3: herbicidal effect by foliage application, Wagner pot (symbol E). Particulars: application herbicide amount 320 g/ha. An outline of the steps:
as §4

The test system of another series is Digitaria ciliaris. The series can be described thus: Test Example 5: herbicidal effect by foliage application, plastic box (symbol F). As to conditions: 320 g/ha, 3 weeks after application. An outline of the steps: as §1
The subject of series [4] is rapeseed. The series can be described thus: Test Example 5: effect on crop by foliage application, plastic box (symbol g). As to conditions: 320 g/ha, 3 weeks after application. The essentials: as §3
Series [5] relates to rapeseed. The series can be described thus: Test Example 4: effect on crop by soil treatment (symbol g). Particulars: application herbicide amount 320 g/ha. The essentials: (§6)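 Plants are raised in a greenhouse (25° C. to 30° C.) from spot-sown seed, which sits under about 1.5 cm of sterilized diluvial soil in a box shared with weed species.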
The next series relates to Amaranthus retroflexus. The series can be described thus: Test Example 5: herbicidal effect by foliage application, plastic box (symbol N). Particulars: 320 g/ha, 3 weeks after application. The essentials:
as §1

Another series concerns wheat. The series can be described thus: Test Example 4: effect on crop by soil treatment (symbol e). As to conditions: application herbicide amount 320 g/ha. The essentials:
as §6

Series [6] concerns Apera spica-venti. The series can be described thus: Test Example 5: herbicidal effect by foliage application, plastic box (symbol L). Particulars: 320 g/ha, 3 weeks after application. An outline of the steps:
as §1

The subject of series [7] is Alopecurus myosuroides. The series can be described thus: Test Example 4: herbicidal effect by soil treatment (symbol J). As to conditions: application herbicide amount 320 g/ha. An outline of the steps:
as §5

The subject of series [8] is Apera spica-venti. The series can be described thus: Test Example 4: herbicidal effect by soil treatment (symbol L). Particulars: application herbicide amount 320 g/ha. The essentials: as §5
The test system of a further series is Scirpus juncoides. The series can be described thus: Test Example 1: herbicidal activity, application before weed generation in submerged conditions (symbol B). Particulars: application herbicide amount 320 g/ha. The essentials: as §2
The subject of another series is Abutilon theophrasti. The series can be described thus: Test Example 5: herbicidal effect by foliage application, plastic box (symbol M). Particulars: 320 g/ha, 3 weeks after application. The essentials: as §1

Each structure is given as a SMILES string.

On to `CON=C(C)CC1CC(O)=C(c2c(C)cc(-c3ccc(F)cc3)cc2C)C1=O` (mixture of isomers) [6-058], for which the “P: Stellaria media, herbicidal effect (criteria of Test Example 1)” value in the series with Stellaria media is given as 5 (Herbicidal ratio of 90% or more (almost completely withered)). For the same compound, the “Herbicidal effect grade, A: Echinochloa oryzacola Vasing.” value in series [1] is given as 5 (Herbicidal ratio of 90% or more (almost completely withered)). The “f: beet, effect on crop (criteria of Test Example 1)” value in the series on beet is recorded as 5 (Herbicidal ratio of 90% or more (almost completely withered)). For the same compound, the “herbicidal effect on H (Echinochloa crus-galli var. crus-galli), grade 0-5” value (shortened to “herbicidal effect on H”) in series [2] is reported as 5 (Herbicidal ratio of 90% or more (almost completely withered)). The “G: Setaria viridis, herbicidal effect grade” value in the series with Setaria viridis is listed as 5 (Herbicidal ratio of 90% or more (almost completely withered)). In the series on Galium spurium, the “Q: Galium spurium, herbicidal effect (criteria of Test Example 1)” value is on record as 5 (Herbicidal ratio of 90% or more (almost completely withered)). Also, in the series on Alopecurus myosuroides [3], the “J: Alopecurus myosuroides, herbicidal effect (criteria of Test Example 1)” value is recorded as 5 (Herbicidal ratio of 90% or more (almost completely withered)). For the same compound, the “herbicidal effect on E, grade 0-5” value with Cyperus difformis is on record as 5 (Herbicidal ratio of 90% or more (almost completely withered)). Further, in the series with Digitaria ciliaris, the “F: Digitaria ciliaris, herbicidal effect (criteria of Test Example 1)” value is recorded as 5 (Herbicidal ratio of 90% or more (almost completely withered)). Also, in the series with rapeseed [4], the “g: rapeseed, effect on crop (criteria of Test Example 1)” value was 5 (Herbicidal ratio of 90% or more (almost completely withered)). In addition, the “g: rapeseed, effect on crop grade” value in the series with rapeseed [5] was 5 (Herbicidal ratio of 90% or more (almost completely withered)). In the series with Amaranthus retroflexus, the “N: Amaranthus retroflexus, herbicidal effect (criteria of Test Example 1)” value is on record as 5 (Herbicidal ratio of 90% or more (almost completely withered)). For the same compound, the “e: wheat, effect on crop grade” value in the series on wheat was 5 (Herbicidal ratio of 90% or more (almost completely withered)). In the series on Apera spica-venti [6], the “L: Apera spica-venti, herbicidal effect (criteria of Test Example 1)” value was 5 (Herbicidal ratio of 90% or more (almost completely withered)). Also, the “J: Alopecurus myosuroides, herbicidal effect grade” value with Alopecurus myosuroides [7] is 5 (Herbicidal ratio of 90% or more (almost completely withered)). Besides, the “L: Apera spica-venti, herbicidal effect grade” value in the series on Apera spica-venti [8] is 5 (Herbicidal ratio of 90% or more (almost completely withered)). Besides, in the series with Scirpus juncoides, the “Herbicidal effect grade, B: Scirpus juncoides” value (“Herbicidal effect grade, B” below) is 5 (Herbicidal ratio of 90% or more (almost completely withered)).
In the case of `CC(CC1CC(O)=C(c2c(C)cc(C)cc2C)C1=O)=NOCc1ccccn1` (stereo not shown) [1-022], in the series on Stellaria media, the “P: Stellaria media, herbicidal effect grade” value is 3 (Herbicidal ratio of 40% or higher and lower than 70%). Further, the “Herbicidal effect grade, A: Echinochloa oryzacola Vasing.” value in [1] was 5 (Herbicidal ratio of 90% or more (almost completely withered)). The “f: beet, effect on crop grade” value with beet is given as 0 (Herbicidal ratio of 5% or lower (almost no effect)). Further, the “herbicidal effect on H” value in [2] was 5 (Herbicidal ratio of 90% or more (almost completely withered)). Further, in the series with Setaria viridis, the “G (Setaria viridis) herbicidal effect grade” value is 3 (Herbicidal ratio of 40% or higher and lower than 70%). Also, in the series on Abutilon theophrasti, the “M: Abutilon theophrasti, herbicidal effect grade” value is 1 (Herbicidal ratio of 5% or higher and lower than 20%). In addition, in the series on Galium spurium, the “Q: Galium spurium, herbicidal effect grade” value was 4 (Herbicidal ratio of 70% or higher and lower than 90%). The “J: Alopecurus myosuroides, herbicidal effect grade” value with Alopecurus myosuroides [3] is 5 (Herbicidal ratio of 90% or more (almost completely withered)). The “herbicidal effect on E, grade 0-5” value in the series on Cyperus difformis is 4 (Herbicidal ratio of 70% or higher and lower than 90%). In addition, in the series with Digitaria ciliaris, the “F: Digitaria ciliaris, herbicidal effect grade” value is listed as 5 (Herbicidal ratio of 90% or more (almost completely withered)). The “g: rapeseed, effect on crop grade” value in the series with rapeseed [4] was 4 (Herbicidal ratio of 70% or higher and lower than 90%). Further, the “N: Amaranthus retroflexus, herbicidal effect grade” value in the series on Amaranthus retroflexus was 1 (Herbicidal ratio of 5% or higher and lower than 20%). For the same compound, in the series with wheat, the “e (wheat) effect on crop grade” value was 4 (Herbicidal ratio of 70% or higher and lower than 90%). Further, in the series on Apera spica-venti [6], the “L: Apera spica-venti, herbicidal effect grade” value was 5 (Herbicidal ratio of 90% or more (almost completely withered)). Also, in the series with Alopecurus myosuroides [7], the “J (Alopecurus myosuroides) herbicidal effect grade” value is on record as 5 (Herbicidal ratio of 90% or more (almost completely withered)). The “L (Apera spica-venti) herbicidal effect grade” value in the series on Apera spica-venti [8] was 5 (Herbicidal ratio of 90% or more (almost completely withered)). Besides, the “Herbicidal effect grade, B” value with Scirpus juncoides is listed as 5 (Herbicidal ratio of 90% or more (almost completely withered)).
Take `CON=C(C)CC1CC(O)=C(c2c(C)cc(C3CC3)cc2C)C1=O` (stereo not shown) [6-050]: in the series with Stellaria media, the “P: Stellaria media, herbicidal effect grade” value was 3 (Herbicidal ratio of 40% or higher and lower than 70%). The “Herbicidal effect grade, A: Echinochloa oryzacola Vasing.” value in series [1] was 3 (Herbicidal ratio of 40% or higher and lower than 70%). For the same compound, the “f: beet, effect on crop grade” value in the series with beet was 2 (Herbicidal ratio of 20% or higher and lower than 40%). Further, the “herbicidal effect on H” value in series [2] was 5 (Herbicidal ratio of 90% or more (almost completely withered)). The “G: Setaria viridis, herbicidal effect grade” value in the series on Setaria viridis is 4 (Herbicidal ratio of 70% or higher and lower than 90%). In addition, in the series with Abutilon theophrasti, the “M: Abutilon theophrasti, herbicidal effect grade” value was 0 (Herbicidal ratio of 5% or lower (almost no effect)). Also, the “Q: Galium spurium, herbicidal effect grade” value in the series with Galium spurium was 3 (Herbicidal ratio of 40% or higher and lower than 70%). Moreover, the “J: Alopecurus myosuroides, herbicidal effect grade” value is 5 (Herbicidal ratio of 90% or more (almost completely withered)) with Alopecurus myosuroides [3]; 4 (Herbicidal ratio of 70% or higher and lower than 90%) in the series on Alopecurus myosuroides [7]. Further, the “herbicidal effect on E, grade 0-5” value in the series with Cyperus difformis is recorded as 5 (Herbicidal ratio of 90% or more (almost completely withered)). Moreover, the “F: Digitaria ciliaris, herbicidal effect grade” value in the series on Digitaria ciliaris is 4 (Herbicidal ratio of 70% or higher and lower than 90%). In addition, the “g: rapeseed, effect on crop grade” value was 5 (Herbicidal ratio of 90% or more (almost completely withered)) in the series on rapeseed [4]; 2 (Herbicidal ratio of 20% or higher and lower than 40%) with rapeseed [5]. Further, the “N: Amaranthus retroflexus, herbicidal effect grade” value with Amaranthus retroflexus is recorded as 0 (Herbicidal ratio of 5% or lower (almost no effect)). Moreover, the “e: wheat, effect on crop grade” value in the series on wheat is 0 (Herbicidal ratio of 5% or lower (almost no effect)). The “L: Apera spica-venti, herbicidal effect grade” value with Apera spica-venti [6] was 4 (Herbicidal ratio of 70% or higher and lower than 90%); in the series with Apera spica-venti [8], 0 (Herbicidal ratio of 5% or lower (almost no effect)). In addition, in the series with Scirpus juncoides, the “Herbicidal effect grade, B” value was 1 (Herbicidal ratio of 5% or higher and lower than 20%).
